Legend:
Puccinia recondita = assay: In vivo preventive test on Puccinia recondita (brown rust on wheat); settings: 500 ppm of active ingredient; wheat plants, preventive spray; grading 12 days after contamination
Description: (§1) The active ingredients tested are prepared by homogenization in a mixture of acetone/tween/DMSO, and then diluted with water to obtain the desired active material concentration.
(§2) Wheat plants (“Scipion” variety), sown in starter cups on a 50/50 peat soil pozzolana substrate and grown at 22° C., are treated at the 1 leaf stage (10 cm height) by spraying with the active ingredient prepared as described above. Plants, used as controls, are treated with the mixture of acetone/tween/DMSO/water not containing the active material.
(§3) After 24 hours, the plants are contaminated by spraying the leaves with an aqueous suspension of Puccinia recondita spores (100 000 spores per mL). The spores are collected from an infected plant and are suspended in water containing 2.5 mL/L of Tween 80 at 10%. The contaminated wheat plants are incubated for 24 hours at 20° C. and at 100% relative humidity, and then for 10 days at 20° C. and at 70-80% relative humidity.
(§4) Grading (% of efficacy) is carried out 12 days after the contamination, in comparison with the control plants.
Under these conditions, good (at least 70%) to total protection is observed at a dose of 500 ppm of active ingredient with the following compounds from table I: […]

Septoria tritici = assay: In vivo preventive test on Septoria tritici (wheat); settings: 500 ppm of active ingredient; wheat plants, preventive spray; grading 24 days after contamination
Description: as §1, §2
After 24 hours, the plants are contaminated by spraying the leaves with an aqueous suspension of cryopreserved Septoria tritici spores (500 000 spores per mL). The contaminated wheat plants are incubated for 72 hours at 18° C. and at 100% relative humidity, and then for 21 days at 90% relative humidity.
Grading (% of efficacy) is carried out 24 days after the contamination, in comparison with the control plants.
Under these conditions, good (at least 70%) to total protection is observed at a dose of 500 ppm of active ingredient with the following compounds from table J: […]

Alternaria brassicae = assay: In vivo preventive test on Alternaria brassicae (leaf spot on radish); settings: Table C1, 500 ppm, radish plants, grading 6 days after contamination
Description: as §1
Radish plants (“Pernod Clair” variety), sown in starter cups on a 50/50 peat soil pozzolana substrate and grown at 17° C., are treated at the cotyledon stage by spraying with the active ingredient prepared as described above. Plants, used as controls, are treated with the mixture of acetone/tween/DMSO/water not containing the active material.
After 24 hours, the plants are contaminated by spraying the cotyledons with an aqueous suspension of Alternaria brassicae spores (50 000 spores per mL). The spores are collected from a 15-day-old culture.
The contaminated radish plants are incubated at 20° C. and at 100% relative humidity.
Grading (% of efficacy) is carried out 6 days after the contamination, in comparison with the control plants.
Under these conditions, high (at least 80%) to excellent (at least 90%) protection is observed at a dose of 500 ppm of active ingredient with the following compounds from table C1: […]

Uromyces appendiculatus = assay: In vivo preventive test on Uromyces appendiculatus (bean rust); settings: 500 ppm of active ingredient; bean plants, preventive spray; grading 11 days after contamination (table K1)
Description: as §1
as §3, with “of Uromyces appendiculatus” for “of Puccinia recondita”, “spores (150” for “spores (100”, “from” for “from an”, “infected plants” for “infected plant”, “contaminated bean” for “contaminated wheat”
Grading (% of efficacy) is carried out 11 days after the contamination, in comparison with the control plants.

Pyrenophora teres = assay: In vivo preventive test on Pyrenophora teres (barley); settings: 500 ppm of active ingredient; barley plants, preventive spray; grading 14 days after contamination
Description: as §1
Barley plants (“Plaisant” variety), sown in starter cups on a 50/50 peat soil pozzolana substrate and grown at 22° C., are treated at the 1 leaf stage (10 cm height) by spraying with the active ingredient prepared as described above. Plants, used as controls, are treated with the mixture of acetone/tween/DMSO/water not containing the active material.
After 24 hours, the plants are contaminated by spraying the leaves with an aqueous suspension of Pyrenophora teres spores (12 000 spores per mL). The spores are collected from a 12-day-old culture.
The contaminated barley plants are incubated for 48 hours at 20° C. and at 100% relative humidity, and then for 12 days at 20° C. at 70-80% relative humidity.
Grading (% of efficacy) is carried out 14 days after the contamination, in comparison with the control plants.
Under these conditions, good (at least 70%) to total protection is observed at a dose of 500 ppm of active ingredient with the following compounds from table H1: […]

Sphaerotheca fuliginea = assay: In vivo preventive test on Sphaerotheca fuliginea (powdery mildew on cucurbits); settings: 500 ppm, gherkin plants, grading 12 days after contamination
Description: The active ingredients tested are prepared by homogenization in a mixture of acetone/tween/DMSO and then diluted with water to obtain the desired active material concentration.
Gherkin plants (“Vert petit de Paris” variety), sown in starter cups on a 50/50 peat soil-pozzolana substrate and grown at 24° C., are treated at the Z11 cotyledon stage by spraying with the active ingredient prepared as described above. Plants, used as controls, are treated with the mixture of acetone/tween/DMSO/water not containing the active material.
After 24 hours, the plants are contaminated by spraying the cotyledons with an aqueous suspension of Sphaerotheca fuliginea spores (100 000 spores per mL). The spores are collected from infected plants. The contaminated gherkin plants are incubated at about 20° C. and at 70-80% relative humidity.
as §4
Under these conditions, good (at least 70%) to total protection is observed at a dose of 500 ppm of active ingredient with the following compounds from table A: […]

[1] = log P by HPLC on a reversed-phase column (C 18), EEC Directive 79/831 Annex V.A8; assay type: physicochemical; settings: Table 1; HPLC C 18, 40° C., 0.1% aqueous formic acid and acetonitrile; several values = mixture of 2 or more isomers
Description: In table 1, the log P values were determined in accordance with EEC Directive 79/831 Annex V.A8 by HPLC (High Performance Liquid Chromatography) on a reversed-phase column (C 18), using the method described below:
Temperature: 40° C.; Mobile phases: 0.1% aqueous formic acid and acetonitrile; linear gradient from 10% acetonitrile to 90% acetonitrile.
Calibration was carried out using unbranched alkan-2-ones (comprising 3 to 16 carbon atoms) with known log P values (determination of the log P values by the retention times using linear interpolation between two successive alkanones). lambda-max-values were determined using UV-spectra from 200 nm to 400 nm and the peak values of the chromatographic signals.

In the case of `Cn1nc(C(F)F)c(C(=O)N(Cc2c(C(F)(F)F)ccc(C3=CCCC3)c2F)C2CC2)c1F` [I.7], the Efficacy (Puccinia recondita) is reported as 81%, the Efficacy (Septoria tritici) is reported as 97% and the Efficacy (Alternaria brassicae) is reported as 80%. The Efficacy (Uromyces appendiculatus) was 98%, the Efficacy (Pyrenophora teres) was 86% and the Efficacy (Sphaerotheca fuliginea) was 100%. The logP [1] was 4.81.
In the case of `Cn1nc(C(F)F)c(C(=O)N(Cc2c(C3=CCCC3)ccc(F)c2F)C2CC2)c1F` [I.19], the Efficacy (Puccinia recondita) is reported as 98%, the Efficacy (Septoria tritici) is reported as 97% and the Efficacy (Alternaria brassicae) is reported as 96%. For the same compound, the Efficacy (Uromyces appendiculatus) was 100%, the Efficacy (Pyrenophora teres) was 93% and the Efficacy (Sphaerotheca fuliginea) was 100%. It also gave a logP [1] of 4.11.
With `CC1CC=C(c2ccccc2C(C)N(C(=O)c2c(C(F)F)nn(C)c2F)C2CC2)CC1` (mixture of isomers) [I.45] the Efficacy (Puccinia recondita) was 81%, the Efficacy (Septoria tritici) was 100% and the Efficacy (Alternaria brassicae) was 98%. It also gave an Efficacy (Uromyces appendiculatus) of 75%, an Efficacy (Pyrenophora teres) of 97% and an Efficacy (Sphaerotheca fuliginea) of 100%. For the same compound, the logP [1] was 5.03.

Reference: patent publication US9540314B2, “N-cycloalkyl-N-[(cycloalkenylphenyl)methylene]-(thio) carboxamide derivatives” (BAYER INTELLECTUAL PROPERTY GMBH, priority 2012, dated 2017)
